From PMC6218659, “Structures of DPAGT1 Explain Glycosylation Disease Mechanisms and Advance TB Antibiotic Design” (Cell, 2018)
≈ marks a conversion by molar mass, not a printed value. Where two headings read alike, the source gives them in different places.

Experiments:
Mtb H37Rv ATCC27294 = test: Minimum inhibitory concentrations testing against Mtb; assay type: cell-based, Mycobacterium tuberculosis; details: for MIC: Mycobacterium tuberculosis, 168 h; for Relative Therapeutic Index (RTI), Mtb H37RV a / Relative Therapeutic Index (RTI), Mtb H37RV b: minimal lethal dose / MIC, 800 μg mL-1 used for >400; for Relative Therapeutic Index (RTI), Mtb H37RV a: 7H9/ADC/Tw; for Relative Therapeutic Index (RTI), Mtb H37RV b: GAST/Fe
[1] = test system: Mtb-infected J774A.1 macrophages; test: Efficacy against Mtb growing in infected macrophages; details: J774A.1 macrophages treated 3 or 7 days
B. cereus ATCC11778 = test: Micro-broth dilution and drop plate antimicrobial susceptibility test; assay type: cell-based, Bacillus cereus; details: for IC50 / MBC / MIC: Bacillus cereus; for Relative Therapeutic Index (RTI), B. cereus NRRL 11778: minimal lethal dose / MIC, 800 μg mL-1 used for >400
Protocol: (§1) In a sterile 96-well plate, serial dilutions were made with the test substance to final volume of 50 μl. Inoculum was then prepared in Mueller-Hinton broth to 0.5 McFarland and diluted before adding 50 μl to the well to make ∼1x10^5 CFU/ml. The culture plate was incubated at 35 °C for 20-24 hrs. A positive growth control and sterility wells were also prepared along with the culture wells. Absorbance at OD600 was taken using BMG Labtech SPECTROstar Omega spectrophotometer. MIC is determined by the lowest concentration without growth. IC50 is determined from plotting a dose-response curve, see Data Analysis below. To determine the MBC, using a multi-channel pipette, 1 μl of culture broth was taken from the same 96-well microdilution growth plate and carefully inoculated on surface of MH agar plate. The plate is then incubated for additional 20 hrs. at 35 °C. The MBC value is the lowest concentration without observed growth on the agar.

HepG2 cells = test: Cell proliferation assay (MTS); assay type: cell-based, human; details: for LD50 values, HepG2: MTS cell proliferation assay, 24 hrs, highest concentration 400 µg mL-1; for Minimal Lethal Dose, HepG2: serial 2-fold dilutions (Table S6)
Protocol: (§2) In sterile 96-well plate, each well was seeded with ∼1x10^5 cells. The cells are then grown confluent overnight in 100 μl DMEM with 10% FBS. The medium is replenished with DMEM with 2% FBS and added vehicle control or test substance the next day. For test substance in methanol, stock was added to 25 μl of DMEM with 2% FBS or PBS and placed in the laminar flow hood to let the methanol evaporate (about 1-3 hrs). Once the methanol has evaporated, DMEM with 2% FBS was added to final volume of 100 μl of desired test concentration. […] Cells are grown for additional 24 hrs. The cell viability was determined by using Promega CellTiter 96^© AQueous One Solution Cell Proliferation Assay (3-(4,5-dimethylthiazol-2-yl)-5-(3-carboxymethoxyphenyl)-2-(4-sulfophenyl)-2H-tetrazolium, inner salt; MTS) System following the manufacture protocol.

Raji cells = test: Cell proliferation assay (MTS); assay type: cell-based, human; details: 24 hrs
Protocol: as §2

HEK293 cells = test: Cell proliferation assay (MTS); assay type: cell-based, human; details: for LD50 values, HEK293: MTS cell proliferation assay, 24 hrs, highest concentration 400 µg mL-1; for Minimal Lethal Dose, HEK 293: serial 2-fold dilutions (Table S6)
Protocol: as §2

B. subtilis EC1524 = test: Micro-broth dilution and drop plate antimicrobial susceptibility test; assay type: cell-based, Bacillus subtilis; details: for IC50 / MBC / MIC: Bacillus subtilis; for Relative Therapeutic Index (RTI), B. subtilis EC1524: minimal lethal dose / MIC, 800 μg mL-1 used for >400
Protocol: as §1

P. aeruginosa ATCC27853 = test: as above; assay type: cell-based; details: Pseudomonas aeruginosa
Protocol: as §1

E. coli ATCC25922 = test: as above; assay type: cell-based; details: Escherichia coli
Protocol: as §1

S. aureus ATCC29219 = test: as above; assay type: cell-based; details: Staphylococcus aureus
Protocol: as §1

[2] = read-out: 1-week MIC in 7H9/ADC/Tw
[3] = read-out: 1-week MIC in GAST/Fe
[4] = read-out: Minimal Inhibitory Concentration, Mtb H37RV a
[5] = read-out: Minimal Inhibitory Concentration, Mtb H37RV b
[6] = ATCC 11778 / NRRL11778, read-out: Minimal Inhibitory Concentration, B. cereus NRRL 11778
[7] = EC1524, read-out: Minimal Inhibitory Concentration, B. subtilis EC1524

Row | Structure (SMILES) | MIC (Mtb H37Rv ATCC27294; [2]) [mg/L] | MIC (Mtb H37Rv ATCC27294; [3]) [mg/L] | MIC (Mtb H37Rv ATCC27294; [4]) [mg/L] | MIC (Mtb H37Rv ATCC27294; [5]) [mg/L] | Relative Therapeutic Index (RTI), Mtb H37RV a (Mtb H37Rv ATCC27294) | Relative Therapeutic Index (RTI), Mtb H37RV b (Mtb H37Rv ATCC27294) | IC50 (B. cereus ATCC11778; ATCC11778) [mg/L] | MBC (B. cereus ATCC11778; ATCC11778) [mg/L] | MIC (B. cereus ATCC11778; ATCC11778) [mg/L] | MIC (B. cereus ATCC11778; [6]) [mg/L] | Relative Therapeutic Index (RTI), B. cereus NRRL 11778 (B. cereus ATCC11778) | LD50 values, HepG2 (HepG2 cells) | Minimal Lethal Dose, HepG2 (HepG2 cells) [µg/mL] | LD50 values, Raji (Raji cells) [µg/mL] | LD50 values, HEK293 (HEK293 cells) | Minimal Lethal Dose, HEK 293 (HEK293 cells) [µg/mL] | IC50 (B. subtilis EC1524; EC1524) [mg/L] | MBC (B. subtilis EC1524; EC1524) [mg/L] | MIC (B. subtilis EC1524; EC1524) [mg/L] | MIC (B. subtilis EC1524; [7]) [mg/L] | further results
1 | CCCCCCCCCCC(=O)N[C@H]1[C@H](O[C@H]2O[C@H](CO)[C@@H](O)[C@H](O)[C@H]2NC(=O)CCCCCCCCCC)O[C@H](C[C@@H](O)[C@H]2O[C@@H](n3ccc(=O)[nH]c3=O)[C@H](O)[C@@H]2O)[C@H](O)[C@@H]1O [TUN-11,11, Di-N-undecanoyl-tunicamycin] | 4.1 ± 2.2 (≈ 4.54 µM) | 1.6 ± 1.6 (≈ 1.77 µM) | 4.1 (≈ 4.54 µM) | 1.6 (≈ 1.77 µM) | 195 | 500 | 0.088 (≈ 0.0974 µM) | > 25 | 0.65 ± 0.23 (≈ 0.72 µM) | 0.78 (≈ 0.864 µM) | 1026 | N/A (N/A = not available. No or low cytotoxicity observed at highest, saturating concentration tested (400 µg mL-1)) | > 400 | 103.65 ± 34.34 | N/A (N/A = not available. No or low cytotoxicity observed at highest, saturating concentration tested (400 µg mL-1)) | > 400 | 0.85 ± 0.28 (≈ 0.941 µM) | > 1.56 | 1.3 ± 0.45 (≈ 1.44 µM) | 1.56 (≈ 1.73 µM) | reduction of intracellular bacterial burdens ([1]; 1 × MIC): 1 logs; reduction of intracellular bacterial burdens ([1]; 10 × MIC): 2 logs; Relative Therapeutic Index (RTI), B. subtilis EC1524 (B. subtilis EC1524): 513; IC50 (P. aeruginosa ATCC27853): 63.2 mg/L (≈ 69.9 µM); MBC (P. aeruginosa ATCC27853): 400 mg/L (≈ 443 µM); MIC (P. aeruginosa ATCC27853): 83 ± 29 mg/L (≈ 91.9 µM); IC50 (E. coli ATCC25922): 131 mg/L (≈ 145 µM); MBC (E. coli ATCC25922): 400 mg/L (≈ 443 µM); MIC (E. coli ATCC25922): 330 ± 120 mg/L (≈ 365 µM); IC50 (S. aureus ATCC29219): 58 mg/L (≈ 64.3 µM); MBC (S. aureus ATCC29219): 400 mg/L (≈ 443 µM); MIC (S. aureus ATCC29219): 170 ± 60 mg/L (≈ 188 µM)
2 | CC(C)=CCC[C@H](C)CC(=O)N[C@H]1[C@H](O[C@H]2O[C@H](CO)[C@@H](O)[C@H](O)[C@H]2NC(=O)C[C@@H](C)CCC=C(C)C)O[C@H](C[C@@H](O)[C@H]2O[C@@H](n3ccc(=O)[nH]c3=O)[C@H](O)[C@@H]2O)[C@H](O)[C@@H]1O [TUN-Cit,Cit, Di-N-citronoyl-tunicamycin] | 16.3 ± 8.8 (≈ 18.7 µM) | 3.4 ± 3.1 (≈ 3.9 µM) | 16.3 (≈ 18.7 µM) | 3.4 (≈ 3.9 µM) | 49 | 235 | 6.29 ± 2.1 (≈ 7.22 µM) | > 200 | 83 ± 29 (≈ 95.3 µM) | 100 (≈ 115 µM) | 8 | N/A (N/A = not available. No or low cytotoxicity observed at highest, saturating concentration tested (400 µg mL-1)) | > 400 | 177.75 ± 75.17 | N/A (N/A = not available. No or low cytotoxicity observed at highest, saturating concentration tested (400 µg mL-1)) | > 400 | 0.36 ± 0.12 (≈ 0.413 µM) | > 200 | 5.2 ± 1.8 (≈ 5.97 µM) | 6.25 (≈ 7.18 µM) | Relative Therapeutic Index (RTI), B. subtilis EC1524 (B. subtilis EC1524): 128; IC50 (P. aeruginosa ATCC27853): 70.3 mg/L (≈ 80.7 µM); MBC (P. aeruginosa ATCC27853): > 400 mg/L; MIC (P. aeruginosa ATCC27853): 170 ± 60 mg/L (≈ 195 µM); IC50 (E. coli ATCC25922): 218 mg/L (≈ 250 µM); MBC (E. coli ATCC25922): 400 mg/L (≈ 459 µM); MIC (E. coli ATCC25922): > 400 mg/L; IC50 (S. aureus ATCC29219): 177 mg/L (≈ 203 µM); MBC (S. aureus ATCC29219): > 200 mg/L; MIC (S. aureus ATCC29219): > 400 mg/L
